Holding throughout (type): cell-based
One assay concerns the target T1, α-Gal A mutant form D33H (Homo sapiens, UniProt P06280, D33H).
T1 construct: expressed in transfected cells; host or cells: HEK-293
T1 sequence (P06280 32-429 D33H): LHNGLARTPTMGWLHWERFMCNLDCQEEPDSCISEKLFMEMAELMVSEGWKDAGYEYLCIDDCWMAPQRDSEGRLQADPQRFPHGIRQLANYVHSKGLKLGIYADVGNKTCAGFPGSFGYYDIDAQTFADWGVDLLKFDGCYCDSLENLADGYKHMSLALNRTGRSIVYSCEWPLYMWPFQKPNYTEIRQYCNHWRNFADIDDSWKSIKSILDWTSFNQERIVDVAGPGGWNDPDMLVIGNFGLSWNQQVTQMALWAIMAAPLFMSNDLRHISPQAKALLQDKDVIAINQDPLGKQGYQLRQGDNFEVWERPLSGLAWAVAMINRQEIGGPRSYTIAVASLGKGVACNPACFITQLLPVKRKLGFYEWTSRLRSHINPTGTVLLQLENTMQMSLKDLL
In words: α-Gal A activity in lysates of transfected HEK-293 cells, D33H. As for the experimental part: (§1) Baseline and 10 μM migalastat α-Gal A activity: Differences in the α-Gal A activity between lysates incubated in the absence and presence of 10 μM migalastat were determined using a one-tailed, Mann Whitney U test; an increase at 10 μM migalastat with a p<0.05 was considered significant.
(§2) 10 μM migalastat α-Gal A activity (% WT)=(α-Gal A activity in mutant transfected cell lysates incubated with 10 μM migalastat÷α-Gal A activity in wild-type transfected cell lysates without migalastat)*100.
(§3) Absolute increase (% WT)=is the 10 μM migalastat α-Gal A activity (% WT) minus the baseline α-Gal A activity (% WT).
(§4) Relative increase is the 10 μM migalastat α-Gal A activity in mutant transfected cell lysates÷baseline α-Gal A activity in mutant transfected cell lysates incubated without migalastat.

Assay [1] deals with T2, α-Gal A mutant form P323T (Homo sapiens, UniProt P06280, P323T).
T2 construct: expressed in transfected cells; host or cells: HEK-293
T2 sequence (P06280 32-429 P323T): T1 sequence (P06280 32-429 D33H) with H2D, P292T
In words: α-Gal A activity in lysates of transfected HEK-293 cells, P323T. Here is the method: as §1, §2, §3, §4

The target of assay [2] is T3, α-Gal A mutant form V339A (Homo sapiens, UniProt P06280, V339A).
T3 construct: expressed in transfected cells; host or cells: HEK-293
T3 sequence (P06280 32-429 V339A): T1 sequence (P06280 32-429 D33H) with H2D, V308A
In words: α-Gal A activity in lysates of transfected HEK-293 cells, V339A. As for the experimental part:
as §1, §2, §3, §4

Assay [3] has as its target T4, α-Gal A mutant form Q107R (Homo sapiens, UniProt P06280, Q107R).
T4 construct: expressed in transfected cells; host or cells: HEK-293
T4 sequence (P06280 32-429 Q107R): T1 sequence (P06280 32-429 D33H) with H2D, Q76R
In words: α-Gal A activity in lysates of transfected HEK-293 cells, Q107R. Here is the method:
as §1, §2, §3, §4

The target of a further assay is T5, α-Gal A mutant form Y88S (Homo sapiens, UniProt P06280, Y88S).
T5 construct: expressed in transfected cells; host or cells: HEK-293
T5 sequence (P06280 32-429 Y88S): T1 sequence (P06280 32-429 D33H) with H2D, Y57S
Description: α-Gal A activity in lysates of transfected HEK-293 cells, Y88S. Particulars: Y-88S. As for the experimental part: as §1, §2, §3, §4

The mark [4] stands for this setting: 10 μM migalastat minus baseline.
Setting [5] is: 10 μM migalastat ÷ baseline activity.
Setting [6] is: HEK-293 lysates, 10 nM migalastat as printed, 5 days, mean ± SEM.
The mark [7] stands for this setting: HEK-293 lysates, 10 μM migalastat, 5 days, mean ± SEM.

Substitutions are numbered along the chain they refer to.

For the compound `OC[C@H]1NC[C@H](O)[C@@H](O)[C@H]1O` [migalastat, (2R,3S,4R,5S)-2-(hydroxymethyl) piperdine-3,4,5-triol], the “Absolute increase (% WT)” value was found to be 32.7 % WT at α-Gal A mutant form D33H (setting [4]); 12.3 % WT in assay [1] (setting [4]); 16.8 % WT in assay [2] (setting [4]); 21.5 % WT in assay [3] (setting [4]); 10.3 % WT on α-Gal A mutant form Y88S (setting [4]). In addition, the Relative increase was determined as 1.93 at α-Gal A mutant form D33H (setting [5]); 1.21 in assay [1] (setting [5]); 1.33 in assay [2] (setting [5]); 1.27 in assay [3] (setting [5]); 3.67 on α-Gal A mutant form Y88S (setting [5]). In addition, the “10 nM migalastat α-Gal A activity” value on α-Gal A mutant form D33H (setting [6]) was 24908 ± 1775 nmol/mg/h; on α-Gal A mutant form Y88S (setting [6]), 5542 ± 376 nmol/mg/h. In addition, the “10 μM migalastat α-Gal A activity (% WT)” value on α-Gal A mutant form D33H (setting [7]) is 68.8 ± 4.3 % WT; in assay [1] (setting [7]), 71.3 ± 4.1 % WT; in assay [2] (setting [7]) it was 65.6 ± 4.2 % WT; in assay [3] (setting [7]), 109.8 ± 8.4 % WT; at α-Gal A mutant form Y88S (setting [7]), 14.1 ± 1.3 % WT. The figures for the “10 μM migalastat α-Gal A activity” value in assay [1] (setting [7]), in assay [2] (setting [7]) and in assay [3] (setting [7]) were 29631 ± 1144 nmol/mg/h, 25174 ± 2895 nmol/mg/h and 31193 ± 2248 nmol/mg/h, respectively.

For the origin of these results see patent publication US12594268B2, “Methods of treating Fabry disease in patients having a mutation in the GLA gene” (Amicus Therapeutics, Inc., priority 2018, dated 2026).
